Values quoted from earlier work as cited in patent US20040087576A1, “Antimnemonic therapy for hypermemory syndromes” (priority 2002, published 2004).

How the values were obtained:
[1] = system: reconsolidation of retrieved memories; conditions: in vivo
conditioned fear = conditions: in vivo
rat fear-conditioning = conditions: rats
[2] = patients; doses of 100-500 mg/day
PTSD symptoms = conditions: patients; 10-day course, 40 mg four times daily, versus placebo; assessed 3 months after the trauma
emotion-related memory = conditions: rats; post-training administration

NC(CCCP(=O)(O)O)C(=O)O (stereo not drawn) [AP5]
amnesia by blocking the reconsolidation of retrieved memories [1]: induce amnesia by blocking the reconsolidation of retrieved memories

N[C@@H]1CONC1=O [D-cycloserine]
extinction of conditioned fear (conditioned fear): facilitate the extinction of conditioned fear

C[C@]12N[C@H](Cc3ccccc31)c1ccccc12 [MK-801]
amnesia by blocking the reconsolidation of retrieved memories [1]: induce amnesia by blocking the reconsolidation of retrieved memories

COc1ccc(C[C@H]2NC[C@H](O)[C@H]2OC(C)=O)cc1 [anisomycin]
reconsolidation of reactivated memories (rat fear-conditioning; cue 1 or 14 days after conditioning, drug immediately after cue, tested 24 hours later): blocked reconsolidation of reactivated memories
fear response to the cue (rat fear-conditioning; cue presented a further twenty four hours after treatment): did not display the fear response

CC12CC3CC(C)(C1)CC(N)(C3)C2 [memantine]
tolerability [2]: well tolerated

CC(C)NCC(O)COc1cccc2ccccc12 (stereo not drawn) [propranolol]
amnesia by blocking the reconsolidation of retrieved memories [1]: induce amnesia by blocking the reconsolidation of retrieved memories
ratings of PTSD symptoms (PTSD symptoms): slightly, but significantly, lower
consolidation of emotion-related memory (emotion-related memory): blocked the consolidation of emotion-related memory
